This note sets out measurements from PubChem BioAssay AID1259407 (Chemical Carcinogenesis Research Information System (CCRIS), 2018).

The subject of this data set is CCRIS mutagenicity, Ames/micronucleus/aberration tests. The data set is described as follows: CCRIS mutagenicity studies.

The source made the active and inactive calls. The rule behind the calls is not given here.

As for `O`, the mutagenic call runs as follows: (End Point: In vitro chromosomal aberrations, Test System: D824 human dental pulp cells, Metabolic Activation: None) “inactive; negative”; (End Point: In vitro chromosomal aberrations, Test System: D824 human dental pulp cells, Metabolic Activation: Rat, Liver, Postmitochondrial supernate (5%)) “inactive; negative”; (Test System: AMES SALMONELLA TYPHIMURIUM, Strain/Indicator: TA97, Metabolic Activation: HAMSTER, LIVER, S-9, AROCLOR 1254 (10 OR 30%), Method: PREINCUBATION) “inactive; negative”; (Test System: AMES SALMONELLA TYPHIMURIUM, Strain/Indicator: TA97, Metabolic Activation: NONE, Method: PREINCUBATION) “inactive; negative”; (Test System: AMES SALMONELLA TYPHIMURIUM, Strain/Indicator: TA97, Metabolic Activation: RAT, LIVER, S-9, AROCLOR 1254 (10 OR 30%), Method: PREINCUBATION) “inactive; negative”; (Test System: AMES SALMONELLA TYPHIMURIUM, Strain/Indicator: TA97, Metabolic Activation: RAT, LIVER, S-9, AROCLOR 1254, Method: PREINCUBATION) “inactive; negative”. The mutagenic call is “inactive; negative” (Test System: AMES SALMONELLA TYPHIMURIUM, Strain/Indicator: TA98, Metabolic Activation: HAMSTER, LIVER, S-9, AROCLOR 1254 (10 OR 30%), Method: PREINCUBATION); “inactive; negative” (Test System: AMES SALMONELLA TYPHIMURIUM, Strain/Indicator: TA98, Metabolic Activation: NONE, Method: PREINCUBATION); “inactive; negative” (Test System: AMES SALMONELLA TYPHIMURIUM, Strain/Indicator: TA98, Metabolic Activation: RAT LIVER S-9, PHENOBARBITAL AND BETA-NAPHTHOFLAVONE, Method: PREINCUBATION); “inactive; negative” (Test System: AMES SALMONELLA TYPHIMURIUM, Strain/Indicator: TA98, Metabolic Activation: RAT, LIVER, S-9, AROCLOR 1254 (10 OR 30%), Method: PREINCUBATION); “inactive; negative” (Test System: AMES SALMONELLA TYPHIMURIUM, Strain/Indicator: TA98, Metabolic Activation: RAT, LIVER, S-9, PHENOBARBITAL AND BETA-NAPHTHOFLAVONE, Method: PREINCUBATION); “inactive; negative” (Test System: AMES SALMONELLA TYPHIMURIUM, Strain/Indicator: TA100, Metabolic Activation: HAMSTER, LIVER, S-9, AROCLOR 1254 (10 OR 30%), Method: PREINCUBATION). Moreover, the mutagenic call by setting is: (Test System: AMES SALMONELLA TYPHIMURIUM, Strain/Indicator: TA100, Metabolic Activation: NONE, Method: PREINCUBATION) “inactive; negative”; (Test System: AMES SALMONELLA TYPHIMURIUM, Strain/Indicator: TA100, Metabolic Activation: RAT LIVER S-9, PHENOBARBITAL AND BETA-NAPHTHOFLAVONE, Method: PREINCUBATION) “inactive; negative”; (Test System: AMES SALMONELLA TYPHIMURIUM, Strain/Indicator: TA100, Metabolic Activation: RAT, LIVER, S-9, AROCLOR 1254 (10 OR 30%), Method: PREINCUBATION) “inactive; negative”; (Test System: AMES SALMONELLA TYPHIMURIUM, Strain/Indicator: TA100, Metabolic Activation: RAT, LIVER, S-9, PHENOBARBITAL AND BETA-NAPHTHOFLAVONE, Method: PREINCUBATION) “inactive; negative”; (Test System: AMES SALMONELLA TYPHIMURIUM, Strain/Indicator: TA102, Metabolic Activation: NONE, Method: PREINCUBATION) “inactive; negative”; (Test System: AMES SALMONELLA TYPHIMURIUM, Strain/Indicator: TA102, Metabolic Activation: RAT, LIVER, S-9, AROCLOR 1254, Method: PREINCUBATION) “inactive; negative”. For the same compound, the mutagenic call is “inactive; negative” (Test System: AMES SALMONELLA TYPHIMURIUM, Strain/Indicator: TA104, Metabolic Activation: NONE, Method: PREINCUBATION); “inactive; negative” (Test System: AMES SALMONELLA TYPHIMURIUM, Strain/Indicator: TA104, Metabolic Activation: RAT, LIVER, S-9, SODIUM PHENOBARBITAL AND 5,6-BENZOFLAVONE, Method: PREINCUBATION); “inactive; negative” (Test System: AMES SALMONELLA TYPHIMURIUM, Strain/Indicator: TA1535, Metabolic Activation: HAMSTER, LIVER, S-9, AROCLOR 1254 (10 OR 30%), Method: PREINCUBATION); “inactive; negative” (Test System: AMES SALMONELLA TYPHIMURIUM, Strain/Indicator: TA1535, Metabolic Activation: NONE, Method: PREINCUBATION); “inactive; negative” (Test System: AMES SALMONELLA TYPHIMURIUM, Strain/Indicator: TA1535, Metabolic Activation: RAT LIVER S-9, PHENOBARBITAL AND BETA-NAPHTHOFLAVONE, Method: PREINCUBATION); “inactive; negative” (Test System: AMES SALMONELLA TYPHIMURIUM, Strain/Indicator: TA1535, Metabolic Activation: RAT, LIVER, S-9, AROCLOR 1254 (10 OR 30%), Method: PREINCUBATION). In addition, the mutagenic call is “inactive; negative” (Test System: AMES SALMONELLA TYPHIMURIUM, Strain/Indicator: TA1535, Metabolic Activation: RAT, LIVER, S-9, PHENOBARBITAL AND BETA-NAPHTHOFLAVONE, Method: PREINCUBATION); “inactive; negative” (Test System: AMES SALMONELLA TYPHIMURIUM, Strain/Indicator: TA1537, Metabolic Activation: HAMSTER, LIVER, S-9, AROCLOR 1254 (30%), Method: PREINCUBATION); “inactive; negative” (Test System: AMES SALMONELLA TYPHIMURIUM, Strain/Indicator: TA1537, Metabolic Activation: NONE, Method: PREINCUBATION); “inactive; negative” (Test System: AMES SALMONELLA TYPHIMURIUM, Strain/Indicator: TA1537, Metabolic Activation: RAT LIVER S-9, PHENOBARBITAL AND BETA-NAPHTHOFLAVONE, Method: PREINCUBATION); “inactive; negative” (Test System: AMES SALMONELLA TYPHIMURIUM, Strain/Indicator: TA1537, Metabolic Activation: RAT, LIVER, S-9, AROCLOR 1254 (30%), Method: PREINCUBATION); “inactive; negative” (Test System: AMES SALMONELLA TYPHIMURIUM, Strain/Indicator: TA1537, Metabolic Activation: RAT, LIVER, S-9, PHENOBARBITAL AND BETA-NAPHTHOFLAVONE, Method: PREINCUBATION). Moreover, the mutagenic call (Test System: AMES SALMONELLA TYPHIMURIUM, Strain/Indicator: TA1538, Metabolic Activation: NONE, Method: PREINCUBATION) is “inactive; negative”; the mutagenic call (Test System: AMES SALMONELLA TYPHIMURIUM, Strain/Indicator: TA1538, Metabolic Activation: RAT LIVER S-9, PHENOBARBITAL AND BETA-NAPHTHOFLAVONE, Method: PREINCUBATION) is “inactive; negative”; the mutagenic call (Test System: E. COLI, Strain/Indicator: WP2UVRA/PKM101, Metabolic Activation: NONE, Method: PREINCUBATION) was “inactive; negative”; the mutagenic call (Test System: E. COLI, Strain/Indicator: WP2UVRA/PKM101, Metabolic Activation: RAT, LIVER, S-9, SODIUM PHENOBARBITAL AND 5,6-BENZOFLAVONE, Method: PREINCUBATION) is “inactive; negative”; the mutagenic call (Test System: E. COLI, Strain/Indicator: WP2UVRA, Metabolic Activation: NONE, Method: PREINCUBATION) is “inactive; negative”; the mutagenic call (Test System: E. COLI, Strain/Indicator: WP2UVRA, Metabolic Activation: RAT, LIVER, S-9, SODIUM PHENOBARBITAL AND 5,6-BENZOFLAVONE, Method: PREINCUBATION) was “inactive; negative”. For the same compound, the mutagenic call reads like this: (Test System: E.COLI, Strain/Indicator: WP2UVRA, Metabolic Activation: NONE, Method: PREINCUBATION) “inactive; negative”; (Test System: E.COLI, Strain/Indicator: WP2UVRA, Metabolic Activation: RAT LIVER S-9, PHENOBARBITAL AND BETA-NAPHTHOFLAVONE, Method: PREINCUBATION) “inactive; negative”; (Test System: MOUSE LYMPHOMA, Strain/Indicator: L5178Y (TK+/TK-), Metabolic Activation: NONE, Method: SUSPENSION/PLATE) “inactive; negative”; (Test System: MOUSE LYMPHOMA, Strain/Indicator: L5178Y (TK+/TK-), Metabolic Activation: RAT, LIVER, S-9, AROCLOR 1254, Method: SUSPENSION/PLATE) “active; positive”.

With `c1cc[n+]2c(c1)-c1cccc[n+]1CC2`, the mutagenic call is, setting by setting: (Test System: AMES SALMONELLA TYPHIMURIUM, Strain/Indicator: TA102, Metabolic Activation: NONE, Method: STANDARD PLATE) “inactive; negative”; (Test System: AMES SALMONELLA TYPHIMURIUM, Strain/Indicator: TA2638, Metabolic Activation: NONE, Method: STANDARD PLATE) “inactive; negative”; (Test System: E. COLI, Strain/Indicator: WP2 (PKM101), Metabolic Activation: NONE, Method: STANDARD PLATE) “inactive; negative”; (Test System: E. COLI, Strain/Indicator: WP2 UVRA (PKM101), Metabolic Activation: NONE, Method: STANDARD PLATE) “inactive; negative”.
